Converted amounts (≈) assume the structure as drawn.
Key:
[1] = Aqueous stability of the compound in HCL at pH 1 assessed as compound half life measured after 24 hrs by UPLC analysis; format: physicochemical; settings: for half-life: aqueous HCl, pH 1
[2] = Aqueous stability of the compound in acetate buffer at pH 4 assessed as compound half life measured after 24 hrs by UPLC analysis; format: physicochemical; settings: for half-life: acetate buffer, pH 4; for t1/2: buffer, pH 4, 24 h, 24 h
[3] = Aqueous stability of the compound in phosphate buffer at pH 6.5 assessed as compound half life measured after 24 hrs by UPLC analysis; format: physicochemical; settings: for t1/2: buffer, pH 6.5, 24 h, 24 h; for half-life: phosphate buffer, pH 6.5
[4] = Aqueous solubility of compound at pH 1 by UPLC analysis; format: physicochemical
[5] = Aqueous solubility of compound at pH 4 by UPLC analysis; format: physicochemical
[6] = Aqueous solubility of compound at pH 6.5 by UPLC analysis; format: physicochemical
[7] = Cmax in Sprague-Dawley rat at 3 ml/kg,po measured upto 24 hrs by UPLC-MS/MS analysis; format: ADME; set-up: dose 3 ml/kg, time < 24 hrs, route po; settings: in vivo
[8] = Tmax in Sprague-Dawley rat at 3 ml/kg,po measured upto 24 hrs by UPLC-MS/MS analysis; format: ADME; settings: in vivo
[9] = AUClast in Sprague-Dawley rat at 3 ml/kg,po measured upto 24 hrs by UPLC-MS/MS analysis; format: ADME; set-up: time < 24 hrs, dose 3 ml/kg, route po; settings: in vivo; for AUClast: 24 h
[10] = Relative Cmax ratio of Atazanavir in Sprague-Dawley rat at 3 ml/kg,po measured upto 24 hrs by UPLC-MS/MS analysis; format: ADME; settings: in vivo
[11] = Relative AUC ratio of Atazanavir in Sprague-Dawley rat at 3 ml/kg,po measured upto 24 hrs by UPLC-MS/MS analysis; format: ADME; settings: in vivo
[12] = Fold ratio of total AUC of Atazanavir in Sprague-Dawley rat at 3 ml/kg,po measured upto 24 hrs by UPLC-MS/MS analysis; format: ADME; settings: in vivo
[13] = Ratio of Cmax/Cmin of Atazanavir in Sprague-Dawley rat at 3 ml/kg,po measured after 24 hrs by UPLC-MS/MS analysis; format: ADME; settings: in vivo
[14] = Ratio of AUC of Atazanavir in Sprague-Dawley rat at 3 ml/kg,po measured upto 24 hrs by UPLC-MS/MS analysis; format: ADME; settings: in vivo
[15] = aqueous medium, read-out: solubility

half-life [1] [days] | half-life [2] [days] | t1/2 [3] [h] | solubility [4, 15] [µg/mL] | solubility [5, 15] [µg/mL] | solubility [6, 15] [µg/mL] | Cmax ([7]; 24 h) [nM] | Tmax ([8]; Sprague-Dawley, read-out: Tmax) [min] | AUClast [9] [nM·h] | Ratio [10] | Ratio [11] | Ratio [12] | Ratio [13] | Ratio [14] | half-life [3] [days] | solubility ([6]; buffer) [µg/mL] | solubility ([4]; buffer) [µg/mL] | solubility ([5]; buffer) [µg/mL] | SMILES | other results
> 20.8 | > 20.8 | 65.4 | > 800 | > 870 | < 1 | 670 | 24 | 1057 | 5.8 | 10.4 | 13.2 | 235.5 | 0.26 |  |  |  |  | COC(=O)N[C@H](C(=O)N[C@@H](Cc1ccccc1)[C@H](CN(Cc1ccc(-c2ccccn2)cc1)NC(=O)[C@@H](NC(=O)OC)C(C)(C)C)OC(=O)OC(OC(=O)[C@@H](N)C(C)C)C(C)(C)C)C(C)(C)C (mixture of isomers) | 
13.9 | 4.18 |  | > 1520 | > 840 |  |  |  |  | 0.5 | 0.3 | 0.3 |  | 0 | 0.446 | < 1 |  |  | COC(=O)N[C@H](C(=O)N[C@@H](Cc1ccccc1)[C@H](CN(Cc1ccc(-c2ccccn2)cc1)NC(=O)[C@@H](NC(=O)OC)C(C)(C)C)OC(=O)OC(OC(=O)[C@@H](N)Cc1ccccc1)C(C)C)C(C)(C)C (stereo in doubt; 3v) | 
 |  | 12.7 |  |  |  |  | 18 |  | 7.8 | 3.7 | 3.8 |  | 0.01 |  | > 890 | > 1670 | > 1630 | COC(=O)N[C@H](C(=O)N[C@@H](Cc1ccccc1)[C@H](CN(Cc1ccc(-c2ccccn2)cc1)NC(=O)[C@@H](NC(=O)OC)C(C)(C)C)OC(=O)OC(OC(=O)[C@@H](N)Cc1ccccc1)C(C)C)C(C)(C)C (stereo in doubt; 3w) | t1/2 ([1]; buffer, pH 1, 24 h): 13.93 days; t1/2 [2]: 6.6 days; Cmax ([7]; Sprague-Dawley, 3 ml/kg): 50 nM; AUC(0-t) at 24 h ([9]; Sprague-Dawley, 3 ml/kg): 0.018 µM·h
> 20.8 | > 20.8 |  | > 1200 |  |  |  | 18 | 1313 | 1.4 | 1.7 | 5.1 |  | 2.07 | > 20.8 | < 1.5 |  | > 950 | COC(=O)N[C@H](C(=O)N[C@@H](Cc1ccccc1)[C@H](CN(Cc1ccc(-c2ccccn2)cc1)NC(=O)[C@@H](NC(=O)OC)C(C)(C)C)OC(=O)OC(OC(=O)C1(N)CC1)C(C)C)C(C)(C)C (stereo in doubt; 3x) | Cmax ([7]; Sprague-Dawley, 3 ml/kg): 1260 nM
 |  |  |  |  |  | 835 |  | 4874 | 2.1 | 9.5 | 22.2 | 31.8 | 1.34 |  | 28 (≈ 31 µM) | > 1800 | > 2100 | COC(=O)N[C@H](C(=O)N[C@@H](Cc1ccccc1)[C@H](CN(Cc1ccc(-c2ccccn2)cc1)NC(=O)[C@@H](NC(=O)OC)C(C)(C)C)OC(=O)OC(OC(=O)C1(N)CC1)C(C)C)C(C)(C)C (stereo in doubt; 3y) | Tmax ([8]; po, 24 h): 24 min
> 20.8 | 13.9 | 27.4 | > 1300 | > 1400 | < 1 | 991 | 30 | 1454 | 1.3 | 1.5 | 5.3 |  | 2.47 |  |  |  |  | COC(=O)N[C@H](C(=O)N[C@@H](Cc1ccccc1)[C@H](CN(Cc1ccc(-c2ccccn2)cc1)NC(=O)[C@@H](NC(=O)OC)C(C)(C)C)OC(=O)OC(OC(=O)[C@@H](N)C(C)C)C1CCCCC1)C(C)(C)C (stereo in doubt; 4n) | 
> 20.8 | > 20.8 |  |  | 140 (≈ 148 µM) | < 1 | 382 | 42 | 996 | 2.1 | 4.4 | 7 | 194.1 | 0.59 | > 20.8 |  | > 420 |  | COC(=O)N[C@H](C(=O)N[C@@H](Cc1ccccc1)[C@H](CN(Cc1ccc(-c2ccccn2)cc1)NC(=O)[C@@H](NC(=O)OC)C(C)(C)C)OC(=O)OC(OC(=O)[C@H](C(C)C)N(C)C)C(C)C)C(C)(C)C (stereo in doubt; 5g) | 
> 20.8 | 15.7 |  | > 1300 | > 1800 |  | 19 | 24 | 15 | 5.3 | 5.6 | 5.6 | 389.4 | 0.01 | 0.679 |  |  |  | COC(=O)N[C@H](C(=O)N[C@@H](Cc1ccccc1)[C@H](CN(Cc1ccc(-c2ccccn2)cc1)NC(=O)[C@@H](NC(=O)OC)C(C)(C)C)OC(=O)OC(OC(=O)[C@H](N)C(C)C)C(C)C)C(C)(C)C (stereo in doubt; 5i) | 
> 20.8 | > 20.8 |  | > 1600 | > 1100 |  | 3 | 18 | 0.5 | 3.3 | 3.3 | 3.3 | 2936.7 | 0.0004 | 6.97 | 76 (≈ 74.6 µM) |  |  | COC(=O)N[C@H](C(=O)N[C@@H](Cc1ccccc1)[C@H](CN(Cc1ccc(-c2ccccn2)cc1)NC(=O)[C@@H](NC(=O)OC)C(C)(C)C)OC(=O)OC(OC(=O)[C@@H](NC(=O)[C@@H](N)C(C)C)C(C)C)C(C)C)C(C)(C)C (stereo in doubt; 6e) | 
 |  | 94 |  |  |  | 235 |  | 208 | 2.7 | 3.7 | 4.2 | 1414 | 0.15 |  | 8 (≈ 7.85 µM) | > 1000 | > 1400 | COC(=O)N[C@H](C(=O)N[C@@H](Cc1ccccc1)[C@H](CN(Cc1ccc(-c2ccccn2)cc1)NC(=O)[C@@H](NC(=O)OC)C(C)(C)C)OC(=O)OC(OC(=O)[C@@H](NC(=O)[C@@H](N)C(C)C)C(C)C)C(C)C)C(C)(C)C (stereo in doubt; 6f) | t1/2 [2]: 15.68 days

— ChEMBL document CHEMBL5137093, “Improving Drug Delivery While Tailoring Prodrug Activation to Modulate Cmax and Cmin by Optimization of (Carbonyl)oxyalkyl Linker-Based Prodrugs of Atazanavir” (J Med Chem, 2022)
